According to ChEMBL document CHEMBL1201862, “PubChem BioAssay data set” (2004):
“And” between values parts separate entries of the source, which are not always exact repeats. Identical values can stand only once. Blank lines part the entries; values can stand above or below the compound they belong to. The source made the active and inactive calls.

Key:
[1] = system: HEK293; experiment: PMA/Ionomycin induced NF-kB luciferase assay in 293- NF-kB-Luc stable cells. [Related pubchem assays: 1299, 1270, 1295, 1375, 1287, 1281, 1293, 1291, 1289, 1280, 465, 1364, 1282, 1372, 1365, 1370, 1367, 1366, 1269, 1373, 1292, 1290, 1302, 1371, 1283, 1271, 1294, 1374, 1368, 1369 ]; format: functional, cell-based; details: Homo sapiens
[2] = system: HEK293; experiment: TNF Induced NF-kB Luciferase in 293-NF-kB-Luc Stable Cells. [Related pubchem assays: 1266, 1299, 1269, 1373, 1292, 1290, 1302, 1371, 1283, 1270, 1295, 1271, 1375, 1294, 1374, 1281, 1293, 1291, 1289, 1280, 465, 1368, 1364, 1282, 1372, 1365, 1369, 1370, 1367, 1366 ]; format: functional, cell-based; details: Homo sapiens
[3] = biological target: Luciferin 4-monooxygenase (Photinus pyralis, UniProt P08659); experiment: In vitro luciferase assay using purified luciferase. [Related pubchem assays: 1299, 1270, 1295, 1375, 1287, 1281, 1293, 1291, 1289, 1280, 465, 1364, 1282, 1372, 1365, 1370, 1367, 1366, 1266, 1373, 1292, 1290, 1302, 1371, 1283, 1271, 1294, 1374, 1368, 1369 ]
Chain of Luciferin 4-monooxygenase (P08659 whole entry): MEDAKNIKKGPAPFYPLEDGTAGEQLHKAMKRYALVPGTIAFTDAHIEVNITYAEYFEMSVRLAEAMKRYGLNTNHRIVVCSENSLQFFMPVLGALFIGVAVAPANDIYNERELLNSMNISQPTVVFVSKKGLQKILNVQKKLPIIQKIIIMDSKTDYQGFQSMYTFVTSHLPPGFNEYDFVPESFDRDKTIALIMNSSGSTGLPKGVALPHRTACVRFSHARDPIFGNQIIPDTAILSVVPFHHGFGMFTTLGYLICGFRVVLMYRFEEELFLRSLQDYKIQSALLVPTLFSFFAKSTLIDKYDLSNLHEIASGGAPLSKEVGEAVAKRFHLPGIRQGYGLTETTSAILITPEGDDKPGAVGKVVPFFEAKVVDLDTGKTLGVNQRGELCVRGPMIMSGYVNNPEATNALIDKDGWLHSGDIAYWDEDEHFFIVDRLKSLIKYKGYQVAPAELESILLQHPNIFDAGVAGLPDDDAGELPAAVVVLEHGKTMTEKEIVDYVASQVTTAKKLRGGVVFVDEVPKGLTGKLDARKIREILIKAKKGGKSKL

[4] = system: HEK293; experiment: PMA/Ionomycin-induced IL-8 production in HEK293- NF-kB-Luc stable cells. [Related pubchem assays: 1299, 1295, 1375, 1287, 1281, 1293, 1291, 1289, 1280, 465, 1364, 1282, 1372, 1365, 1367, 1366, 1266, 1269, 1373, 1292, 1290, 1302, 1371, 1283, 1271, 1294, 1374, 1368, 1369 ]; format: functional, cell-based; details: Homo sapiens
[5] = system: HEK293; experiment: Cytotoxicity assay in HEK293 cells. [Related pubchem assays (depositor defined):AID1266, AID1269, AID1270, AID1271, AID1280, AID1281, AID1282, AID1283, AID1287, AID1289, AID1290, AID1291, AID1292, AID1293, AID1294, AID1295, AID1299, AID1302, AID1364, AID1365, AID1366, AID1367, AID1369, AID1370, AID1371, AID1372, AID1373, AID1374, AID1375, AID1384 …; format: functional, cell-based; details: Homo sapiens
[6] = biological target: T1, Kappa-type opioid receptor (Homo sapiens, UniProt P41145); format: functional
T1 sequence (P41145 whole entry): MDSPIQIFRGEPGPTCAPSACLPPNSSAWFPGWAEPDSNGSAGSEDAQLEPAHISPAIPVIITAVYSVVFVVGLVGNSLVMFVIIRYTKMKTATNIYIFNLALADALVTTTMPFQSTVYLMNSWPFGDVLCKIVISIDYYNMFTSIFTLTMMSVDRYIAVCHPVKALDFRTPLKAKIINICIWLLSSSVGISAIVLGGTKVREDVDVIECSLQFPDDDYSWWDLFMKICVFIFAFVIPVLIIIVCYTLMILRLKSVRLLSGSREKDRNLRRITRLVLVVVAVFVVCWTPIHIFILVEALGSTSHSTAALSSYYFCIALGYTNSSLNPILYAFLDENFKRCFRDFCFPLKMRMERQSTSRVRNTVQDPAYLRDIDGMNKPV

[7] = biological target: T2, Delta-type opioid receptor (Homo sapiens, UniProt P41143); experiment: HTS Image-Based Screen for Antagonists of the DOR Receptor. [Related pubchem assays (depositor defined):AID1777, AID1785, AID1786, AID2133]; format: functional
T2 sequence (P41143 whole entry): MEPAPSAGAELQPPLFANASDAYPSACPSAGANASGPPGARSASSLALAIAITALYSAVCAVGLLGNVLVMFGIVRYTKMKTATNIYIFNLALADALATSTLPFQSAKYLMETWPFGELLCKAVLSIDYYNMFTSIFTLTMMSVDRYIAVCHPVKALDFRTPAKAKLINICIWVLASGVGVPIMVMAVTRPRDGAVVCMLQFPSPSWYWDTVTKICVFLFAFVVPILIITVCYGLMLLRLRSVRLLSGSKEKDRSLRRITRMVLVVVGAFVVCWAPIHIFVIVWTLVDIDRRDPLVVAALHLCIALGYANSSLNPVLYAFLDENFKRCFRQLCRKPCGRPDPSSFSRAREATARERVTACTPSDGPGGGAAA

[8] = biological target: Cytochrome P450 2C9 (Homo sapiens, UniProt P11712)
Chain of Cytochrome P450 2C9 (P11712 whole entry): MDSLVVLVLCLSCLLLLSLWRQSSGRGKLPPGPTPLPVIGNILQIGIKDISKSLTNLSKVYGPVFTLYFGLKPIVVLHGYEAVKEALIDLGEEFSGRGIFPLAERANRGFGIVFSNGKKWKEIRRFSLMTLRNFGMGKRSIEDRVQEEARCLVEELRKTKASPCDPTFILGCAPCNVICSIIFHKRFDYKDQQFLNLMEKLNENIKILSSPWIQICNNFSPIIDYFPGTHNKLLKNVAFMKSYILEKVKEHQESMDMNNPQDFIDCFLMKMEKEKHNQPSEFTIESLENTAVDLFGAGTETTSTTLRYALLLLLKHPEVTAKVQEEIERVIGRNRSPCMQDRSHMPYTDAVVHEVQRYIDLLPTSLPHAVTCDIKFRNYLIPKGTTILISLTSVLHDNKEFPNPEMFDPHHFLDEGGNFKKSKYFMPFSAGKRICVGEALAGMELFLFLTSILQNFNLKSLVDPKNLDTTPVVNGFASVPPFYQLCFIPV

[9] = biological target: Cytochrome P450 2C19 (Homo sapiens, UniProt P33261); experiment: Cytochrome panel assay with activity outcomes. Panel member name: p450-cyp2c19 Compounds with AC50 equal or less than 10 uM are considered active; format: functional; details: read-out: AC50
Chain of Cytochrome P450 2C19 (P33261 whole entry): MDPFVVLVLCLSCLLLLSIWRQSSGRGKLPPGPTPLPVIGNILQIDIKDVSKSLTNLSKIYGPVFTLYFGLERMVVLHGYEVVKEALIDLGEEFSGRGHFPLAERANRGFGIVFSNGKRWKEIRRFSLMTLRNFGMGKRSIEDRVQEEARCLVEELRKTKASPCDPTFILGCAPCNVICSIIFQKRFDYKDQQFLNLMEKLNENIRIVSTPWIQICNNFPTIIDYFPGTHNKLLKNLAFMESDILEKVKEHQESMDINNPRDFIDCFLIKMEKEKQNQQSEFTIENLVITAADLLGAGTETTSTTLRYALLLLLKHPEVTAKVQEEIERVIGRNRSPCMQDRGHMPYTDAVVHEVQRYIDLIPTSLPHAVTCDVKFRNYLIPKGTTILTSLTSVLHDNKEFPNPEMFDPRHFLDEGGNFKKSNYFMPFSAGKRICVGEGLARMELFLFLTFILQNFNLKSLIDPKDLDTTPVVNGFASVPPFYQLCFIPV

[10] = biological target: T2, Delta-type opioid receptor; experiment: HTS Image-Based Screen for Agonists of the DOR Receptor. [Related pubchem assays (depositor defined):AID1777, AID1786, AID2133]; format: functional
[11] = biological target: T1, Kappa-type opioid receptor; format: functional; remark: listed apart in the source
[12] = biological target: T3, Mu-type opioid receptor (Homo sapiens, UniProt P35372); experiment: HTS Image-Based Screen for Agonists of the MOR Receptor. [Related pubchem assays (depositor defined):AID1777, AID1785, AID1786, AID2133]; format: functional
T3 sequence (P35372 whole entry): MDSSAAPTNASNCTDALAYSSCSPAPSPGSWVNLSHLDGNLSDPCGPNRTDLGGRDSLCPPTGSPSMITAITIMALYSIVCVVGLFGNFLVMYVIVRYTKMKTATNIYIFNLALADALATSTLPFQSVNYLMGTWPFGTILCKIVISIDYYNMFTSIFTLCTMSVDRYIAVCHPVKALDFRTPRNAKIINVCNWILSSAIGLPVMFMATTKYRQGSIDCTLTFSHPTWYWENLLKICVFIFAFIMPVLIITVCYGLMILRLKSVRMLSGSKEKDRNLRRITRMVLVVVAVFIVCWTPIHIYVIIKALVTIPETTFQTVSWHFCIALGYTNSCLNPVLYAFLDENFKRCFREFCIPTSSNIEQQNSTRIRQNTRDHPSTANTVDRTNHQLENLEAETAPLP

[13] = biological target: Beta-galactosidase (Escherichia coli, UniProt Q8VNN2); format: functional
Chain of Beta-galactosidase (Q8VNN2 whole entry): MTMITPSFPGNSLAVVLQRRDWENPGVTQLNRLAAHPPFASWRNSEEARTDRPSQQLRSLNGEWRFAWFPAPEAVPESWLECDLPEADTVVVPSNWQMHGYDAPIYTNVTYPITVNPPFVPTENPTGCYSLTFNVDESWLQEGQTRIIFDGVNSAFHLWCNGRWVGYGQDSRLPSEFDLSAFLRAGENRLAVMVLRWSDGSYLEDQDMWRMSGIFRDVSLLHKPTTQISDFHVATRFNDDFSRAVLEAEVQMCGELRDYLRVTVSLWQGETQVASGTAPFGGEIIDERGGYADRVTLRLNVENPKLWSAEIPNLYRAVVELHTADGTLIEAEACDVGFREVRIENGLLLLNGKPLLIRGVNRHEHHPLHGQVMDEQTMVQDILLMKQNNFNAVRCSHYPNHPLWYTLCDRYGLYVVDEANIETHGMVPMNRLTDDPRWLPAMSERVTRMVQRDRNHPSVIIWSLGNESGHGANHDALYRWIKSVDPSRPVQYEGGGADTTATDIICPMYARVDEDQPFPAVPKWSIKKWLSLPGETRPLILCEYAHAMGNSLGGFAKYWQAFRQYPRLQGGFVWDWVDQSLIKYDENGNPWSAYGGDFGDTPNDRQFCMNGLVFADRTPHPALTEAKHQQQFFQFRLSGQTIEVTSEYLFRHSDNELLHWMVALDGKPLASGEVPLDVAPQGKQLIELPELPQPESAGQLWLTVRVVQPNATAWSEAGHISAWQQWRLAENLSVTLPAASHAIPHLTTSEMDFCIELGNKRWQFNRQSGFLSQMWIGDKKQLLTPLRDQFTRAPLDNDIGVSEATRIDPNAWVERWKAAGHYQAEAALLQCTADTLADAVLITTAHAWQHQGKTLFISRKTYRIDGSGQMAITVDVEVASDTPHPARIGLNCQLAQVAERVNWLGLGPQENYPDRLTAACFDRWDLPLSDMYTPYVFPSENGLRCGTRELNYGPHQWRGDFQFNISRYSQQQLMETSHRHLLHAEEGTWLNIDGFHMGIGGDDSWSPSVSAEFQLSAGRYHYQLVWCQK

[14] = biological target: T3, Mu-type opioid receptor; experiment: MOR agonists by imaging, SAR follow-up, image-based (AID 2352); format: functional
[15] = biological target: T1, Kappa-type opioid receptor; format: functional; remark: listed apart in the source
[16] = biological target: T1, Kappa-type opioid receptor; experiment: SAR analysis of Antagonists of the Kappa Opioid Receptor (KOR) using an Image-Based Assay - Set 3. [Related pubchem assays (depositor defined):AID1777, AID1785]; format: functional
[17] = biological target: T2, Delta-type opioid receptor; experiment: DOR antagonists, SAR follow-up, image-based (AID 2357); format: functional
[18] = biological target: T1, Kappa-type opioid receptor; experiment: SAR analysis of small molecule antagonists of the kappa opioid receptor via a luminescent beta-arrestin assay - Set 3. [Related pubchem assays (depositor defined):AID1777, AID1778, AID1785, AID1786, AID1966, AID2133, AID2136, AID2285, AID2495]; format: functional
[19] = biological target: T2, Delta-type opioid receptor; experiment: DOR agonists, SAR follow-up, image-based (AID 2370); format: functional
[20] = biological target: T1, Kappa-type opioid receptor; experiment: KOR antagonists by imaging, SAR follow-up, image-based (AID 2348); format: functional
[21] = biological target: T1, Kappa-type opioid receptor; experiment: kappa opioid receptor blockers, cell-based, luminescence, beta-arrestin, SAR follow-up (AID 2285); format: functional
[22] = biological target: T1, Kappa-type opioid receptor; format: functional; remark: listed apart in the source
[23] = biological target: T3, Mu-type opioid receptor; experiment: MOR antagonists, SAR follow-up, image-based (AID 2420); format: functional;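 also: compounds added before stimulation of receptor with agonist DAMGO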
[24] = biological target: T1, Kappa-type opioid receptor; experiment: KOR agonist analogs, imaging readout, SAR follow-up, image-based (AID 2359); format: functional
[25] = biological target: T1, Kappa-type opioid receptor; experiment: SAR analysis of Antagonists of the Kappa Opioid Receptor (KOR) using an Image-Based Assay - Set 4. [Related pubchem assays (depositor defined):AID1777, AID1785]; format: functional
[26] = biological target: T3, Mu-type opioid receptor; experiment: SAR Analysis of Antagonists of the MOR Receptor using an Image-Based Assay - Set 3. [Related pubchem assays (depositor defined):AID1777, AID1785, AID1786, AID1966, AID2133, AID2136, AID2284, AID2285, AID2420]; format: functional
[27] = biological target: T2, Delta-type opioid receptor; experiment: SAR Analysis of Antagonists of the DOR Receptor using an Image-Based Assay - Set 3. [Related pubchem assays (depositor defined):AID1777, AID1785]; format: functional
[28] = biological target: G-protein coupled receptor 55 (Homo sapiens, UniProt Q9Y2T6); experiment: GPR55 agonists via beta-arrestin recruitment, primary screen, imaging, U2OS cells, beta-arrestin-GFP redistribution (AID 1961); format: functional
Chain of G-protein coupled receptor 55 (Q9Y2T6 whole entry): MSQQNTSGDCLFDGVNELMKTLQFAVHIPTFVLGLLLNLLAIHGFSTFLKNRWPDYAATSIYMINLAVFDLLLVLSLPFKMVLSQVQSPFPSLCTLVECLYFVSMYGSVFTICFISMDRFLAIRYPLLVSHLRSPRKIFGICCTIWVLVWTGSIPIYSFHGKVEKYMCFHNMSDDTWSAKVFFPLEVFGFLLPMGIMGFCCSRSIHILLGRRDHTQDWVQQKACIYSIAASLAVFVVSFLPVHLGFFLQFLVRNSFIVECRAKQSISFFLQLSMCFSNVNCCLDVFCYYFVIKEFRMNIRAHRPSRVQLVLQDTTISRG

SMILES: CCOc1ccc(N(CC(=O)Nc2ccccc2Br)S(C)(=O)=O)cc1
EC50 [1]: 2.78 µM (active)
EC50 [2]: > 8 µM (not active)
EC50 [3]: > 8 µM (not active)
EC50 [4]: 8.11 µM (not active)
EC50 [5]: 15.5 µM (inactive)

EC50 [6]: 11.4 µM
IC50 [7]: > 32 µM (inactive)
AC50 [8]: 12.6 µM (inconclusive)
AC50 [9]: 7.94 µM (inconclusive)
EC50 [10]: > 32 µM (inactive)
EC50 [11]: 9.05 µM
EC50 [12]: > 32 µM (inactive)
SMILES: CCC(C)(C(=O)NC1CCCC1)N(Cc1ccco1)C(=O)c1ccccn1 (stereo unspecified)

EC50 [13]: > 31.5 µM (inactive)
EC50 [14]: > 32 µM (inactive)
IC50 [15]: 1.32 µM
IC50 [16]: 243 nM (active) and 670 nM (active)
IC50 [17]: > 32 µM (inactive)
IC50 [18]: 1.07 µM (active) and 3.05 µM (active)
EC50 [19]: > 32 µM (inactive)
IC50 [20]: 4.14 µM (active)
IC50 [21]: 1.67 µM (active)
IC50 [22]: 2.17 µM (active)
IC50 [23]: > 32 µM (inactive)
IC50 [7]: > 32 µM (inactive)
EC50 [24]: > 32 µM (inactive)
IC50 [25]: 0.205 µM (active)
IC50 [26]: > 32 µM (inactive)
EC50 [10]: > 32 µM (inactive)
IC50 [27]: > 32 µM (inactive)
EC50 [12]: > 32 µM (inactive)
SMILES: COc1ccc(N2CCN(CCCNC(=O)Cn3c(=O)c4cccn4c4cccnc43)CC2)cc1

EC50 [28]: 10.7 µM (inactive)
SMILES: CN1CCN(c2nc(Nc3ccccc3)nc(N)c2[N+](=O)[O-])CC1
